According to US8551509B2, “Skin agent for external use and cosmetic agent including ubiquinone derivative or salt thereof and method using the same” (Showa Denko K.K., priority 2006, dated 2013):

Key:
[1] = Test of radical scavenging ability (H2-DCFDA fluorescence, AAPH); assay type: biochemical; conditions: final concentration 0.006%, 30 minutes after AAPH addition, 37° C.
Description: The resultant solution was added to a 10 mM aqueous sodium hydroxide solution such that the concentration of the agent was 1 mM. The radical fluorescence detecting agent was hydrolyzed in the dark at room temperature for 60 minutes and was activated. The liquid was diluted with Dulbecco's phosphate buffered saline (PBS) to give a diluted liquid with a final concentration of 0.01 mM. […]-40 manufactured by Nihon Emulsion Co., Ltd.). […] The mixture thus prepared was used as a test liquid. A test liquid having a final ubiquinone concentration of 0.006% was prepared in the same manner using ubiquinone. A test liquid was prepared as described above except that the ubiquinone solution was replaced by the same volume of distilled water. This test liquid was used as a negative control. […] The mixture was heated to 37° C. After 30 minutes after the addition, the fluorescence intensity at an excitation wavelength of 495 nm and a fluorescence wavelength of 525 nm of the respective liquids was measured. The fluorescence suppression was obtained as radical scavenging ability of ubiquinone and potassium ubiquinol-1,4-diphosphate.

[2] = test system: Normal human skin fibroblast cells NB1RGB; conditions: 3 days, 0.007 %
Description: Normal human skin fibroblast cells NB1RGB (spared from RIKEN) were inoculated to a DMEM culture medium including 10% FBS on a 9 cm Petri dish such that the normal human skin fibroblast cells NB1RGB were approximately 1.0×10^5 in number per ml. The cells were cultured in a CO2 incubator at 37° C. for 7 days to reach confluent while the culture medium was exchanged every 3 days. […] After the culture, the cells were cleaned three times on the Petri dish each with 10 ml of PBS(−), and were released and recovered using trypsin/EDTA. The cells were then resuspended in 1 ml of PBS(−), and were quickly broken with a homogenizer. Insoluble matters were removed by centrifugal separation at 10000 rpm for 10 minutes, and 10 μl of the supernatant was subjected to HPLC. The remainder was combined with an equivalent amount of hexane, and these were sufficiently mixed together to give a turbid liquid. The turbid liquid was subjected to centrifugal separation at 10000 rpm for 3 minutes, and the resultant supernatant hexane layer was analyzed by HPLC.
Column: Shodex F-511A (manufactured by Showa Denko K.K)
Column temperature: 40° C.
Eluent: methanol/water/phosphoric acid=1000/5/1
Detection: photodiode array 210 nm-370 nm
In the HPLC analysis, ubiquinone used in Synthetic Example 1 and ubiquinol immediately after synthesized in Synthetic Example 1 were used as references. […]

[3] = Maximum soluble amount in cosmetic liquid of prescription example 1 (HPLC); assay type: physicochemical; conditions: 1.0% added to prescription example 1, insolubles filtered off (1-μm filter paper)
Description: Specifically, ubiquinone or ubiquinol was added in an amount corresponding to 1.0%. The resultant suspension was filtered through 1-μm filter paper, and thereby insolubles were removed. The cosmetic liquids B and C were thus prepared.
The final concentrations of ubiquinone and ubiquinol in the cosmetic liquids B and C were measured by HPLC similarly to Example 1, resulting in 0.011% and 0.023%, respectively.

[4] = Water solubility at normal temperature; assay type: physicochemical
[5] = Maximum ubiquinone concentration in DMEM culture medium including 10% FBS (HPLC); assay type: physicochemical; conditions: DMEM with 10% FBS, 0.03% added, stirred 6 hours at room temperature, filtered
Description: To a DMEM culture medium including 10% FBS, reagent ubiquinone was added in an amount corresponding to 0.03%. The mixture was stirred with a stirrer at room temperature for 6 hours. The mixture was filtered through a 0.02 µm filter, and a ubiquinone-containing culture medium was prepared.

| Concentration in cells after culture: Ubiquinone [2] [ng/mL] | water solubility [4] | ubiquinone concentration in the culture medium (probably the maximum) [5] [%] | Compound | Fluorescence intensity (Ex 495/Em 525 nm: relative value) [1] [relative value] | Radical scavenging ability (Fluorescence suppression (%)) [1] [%] | final concentration in the cosmetic liquid (maximum soluble amount) [3] [%] |
| --- | --- | --- | --- | --- | --- | --- |
| – | – | – | tetrapotassium ubiquinol-1,4-diphosphate | 5001 | 78 | – |
| 2000 | less than 100 ppm | 0.007 | COC1=C(OC)C(=O)C(C/C=C(\C)CC/C=C(\C)CC/C=C(\C)CC/C=C(\C)CC/C=C(\C)CC/C=C(\C)CC/C=C(\C)CC/C=C(\C)CC/C=C(\C)CCC=C(C)C)=C(C)C1=O [ubiquinone, 2,3-dimethoxy-5-methyl-6-polyprenyl-1,4-benzoquinone] | 13315 | 41 | 0.011 |
| – | – | – | COc1c(O)c(C)c(C/C=C(\C)CC/C=C(\C)CC/C=C(\C)CC/C=C(\C)CC/C=C(\C)CC/C=C(\C)CC/C=C(\C)CC/C=C(\C)CC/C=C(\C)CCC=C(C)C)c(O)c1OC [ubiquinol] | – | – | 0.023 |
